Assay [1] relates to BKV. As to the kind of experiment: In vitro antiviral activity in cell culture. The assay is classed as cell-based.
The subject of a further assay is AdV. As to the kind of experiment: In vitro antiviral activity in cell culture. Type of assay: cell-based.
The subject of another assay is EBV. As to the kind of experiment: In vitro antiviral activity in cell culture. Type of assay: cell-based. As to conditions: human gammaherpesvirus 4.
The next assay deals with HHV-6(B). Put plainly: In vitro antiviral activity in cell culture. The assay is classed as cell-based.
In the next assay the test system is HSV-1. Put plainly: In vitro antiviral activity in cell culture. As to conditions: HSV-1, cell culture; for EC50: Human alphaherpesvirus 1. The assay is classed as cell-based.
Another assay deals with CMV. Put plainly: In vitro antiviral activity in cell culture. The assay is classed as cell-based. The following applies: Human betaherpesvirus 5.
Another assay has as its system VZV. Put plainly: In vitro antiviral activity in cell culture. The following applies: for EC50: Human alphaherpesvirus 3, read-out: EC50s.
In assay [2] the test system is BKV. As to the kind of experiment: Study HDP-CDV-201: serum creatinine as marker of renal function.
Assay [3] concerns BKV. As to the kind of experiment: Study HDP-CDV-201: hematuria and BKV bladder events. The assay is classed as in vivo, human. Here is the method:
A multicenter, randomized, double-blind, placebo-controlled, dose-escalation study of safety, tolerability, and ability of HDP-CDV to prevent or control […], and EBV infection and associated disorders was conducted. During enrollment of patients in the study, urine samples of candidate patients were routinely screened for BKV. Plasma was collected from patients who tested positive for BKV viruria in urine, and AdV, EBV and BKV level in the plasma was evaluated.

[4] abbreviates: BK positive during treatment (1/93).
Setting [5] is: BK positive during treatment, N=93.

SMILES strings stand for the structures.

The values that follow come from patent US20150087619A1, “METHOD OF MITIGATING VIRUS ASSOCIATED END-ORGAN DAMAGE” (CHIMERIX, INC., priority 2012, published 2015).

Consider `Nc1nc2c(ncn2COCCO)c(=O)[nH]1` [Acyclovir], for which the EC50 in the assay on BKV [1] was above 200 µM; with AdV it was above 100 µM.

`Nc1ccn(C[C@@H](CO)OCP(=O)(O)O)c(=O)n1` [Cidofovir]: the EC50 with EBV is above 108 µM; in the assay on HHV-6(B), 5.4 µM; in the assay on BKV [1], 115 µM; in the assay on HSV-1 it was 5.5 µM; with CMV it was 0.4 µM; in the assay on VZV, 0.5 µM. In the assay on AdV, this compound showed an EC50 of 1.3 µM.

With `Nc1nc(O)c2ncn(COC(CO)CO)c2n1` [Ganciclovir], the EC50 in the assay with EBV is 0.9 µM; with HHV-6(B), 5.9 µM; with BKV [1], above 200 µM; in the assay with HSV-1, 0.007 µM; in the assay on CMV it was 3.8 µM; with VZV, 1.3 µM. Also, in the assay on AdV, the EC50 lay in the range of 4.5 to 33 µM.

`CCCCCCCCCCCCCCCCOCCCOP(=O)(O)CO[C@H](CO)Cn1ccc(N)nc1=O` [HDP-CDV]: the figures for the “>120 LAST; 1 + HEME NEW ONSET; CONFIRMED; >25% INC CREATININE” value in the assay on BKV [2] (BK negative throughout) and in the assay on BKV [2] (setting [4]) were 1.3% and 1.1%, respectively. The “CR >120 LAST VALUE; 1 + HEME CONFIRMED NEW ONSET” value in the assay on BKV [2] (BK negative throughout (1/78)) came out at 1.3%; in the assay on BKV [2] (setting [4]), 1.1%. The “>120; NEW; >25% INCREASE” value in the assay on BKV [2] (BK negative throughout (6/78)) came to 7.7%; with BKV [2] (BK positive during treatment (7/93)) it was 7.5%. In addition, the “CREATININE >120 LAST VALUE AND NEW FROM BASELINE” value was determined as 7.7% with BKV [2] (BK negative throughout (6/78)) and 10.8% in the assay with BKV [2] (BK positive during treatment (10/93)). For the same compound, the “creatinine elevations >120 microM and =>25% increase over baseline” value with BKV [2] (BK negative throughout (7/78), placebo 7.4%) was found to be 9.0%. Besides, the figures for the “CR >120 LAST VALUE” in the assay on BKV [2] (BK negative throughout (10/78)) and in the assay on BKV [2] (BK positive during treatment (14/93)) were 12.8% and 15.1%, respectively. Moreover, the “creatinine elevations (>120 last and >25% increase from baseline) OR 1+ heme, confirmed, new onset” value in the assay on BKV [2] (BK negative throughout (11/78), placebo 11.1%) worked out at 14.1%; in the assay with BKV [2] (BK positive during treatment (11/93), placebo 37.5%), 11.8%. Further, the “# (of CR >120 at baseline) THAT INCREASED >25%” value in the assay on BKV [2] (BK negative throughout, N=78) turned out to be 1; with BKV [2] (setting [5]), 0. Moreover, the “# (of CR >120 at baseline) THAT INCREASED DURING TREATMENT” value in the assay on BKV [2] (BK negative throughout, N=78) was 1; in the assay with BKV [2] (setting [5]) it was 0. For the same compound, in the assay on BKV [2] (BK positive during treatment (7/93), placebo 18.75%), the “end of treatment creatinine elevations >120 microM and =>25% over baseline” value is listed as 7.5%. Besides, the “1 + HEME CONFIRMED; NEW ONSET” value turned out to be 5.1% in the assay on BKV [3] (BK negative throughout (4/78)) and 4.3% in the assay with BKV [3] (BK positive during treatment (4/93)).

For `CC(C)Nc1nc2cc(Cl)c(Cl)cc2n1[C@H]1O[C@@H](CO)[C@H](O)[C@@H]1O` [Maribavir], the EC50 was 0.63 µM in the assay with EBV and 0.31 µM in the assay on CMV. The EC50s result with HSV-1 was “No Activity”; in the assay with VZV (VZV, cell culture), “No Activity”.
